{"source": "patent US20200339625A1", "about": "“NOVEL RADIOMETAL-BINDING COMPOUNDS FOR DIAGNOSIS OR TREATMENT OF PROSTATE SPECIFIC MEMBRANE ANTIGEN-EXPRESSING CANCER” (PROVINCIAL HEALTH SERVICES AUTHORITY, priority 2017, published 2020)", "key": {"[1]": {"assay": "Radiation dosimetry calculation (OLINDA), 25-g mouse", "description": "1.18 Radiation Dosimetry Calculation\nInternal dosimetry estimates were calculated using the organ level internal dose assessment (OLINDA) software v.2.0.^37 These estimates were performed for the mouse using the 25 g MOBY phantom,^38 for humans using the NURBS model for the adult male,^39 and for the tumors using the previously reported unit density sphere model.^40 All the phantoms and the sphere model are available in OLINDA and require the input of the total number of decays normalized by injected activity in units of MBq×h/MBq for each of the source organ/tumor.\nThe biodistribution data (available in the Tables 1 and 2, below) was used to determine the kinetics input values required by OLINDA. First, each of the values was decayed to its corresponding time point (the values on the table are shown at injection time). Then the different time-points of the uptake data (% ID/g) for each organ were fitted to both mono-exponential\nfunctions using in-house software developed in Python. The best fit was selected based on maximizing the coefficient of determination (R2) of the fit and minimizing the residuals. The areas under the curves were analytically calculated based on the parameters obtained from the best fit of each organ and this provided the kinetic input values required by OLINDA.\nIn the mouse case, the adrenals, blood, fat, muscle, and seminal vesicles are not modeled in the phantom. These organs were grouped together and included in what OLINDA calls the remainder of the body."}, "[2]": {"test_system": "LNCaP tumor-bearing mice", "assay": "Endoradiotherapy study", "format": "in vivo", "details": "for Median survival: n=8", "description": "SPECT/CT imaging and biodistribution were performed using NOD-scid IL2Rgammanu^null (NSG) male mice, and the endoradiotherapy study was conducted using NOD.Cg-Rag1^tm1MomII2rg^tm1WjI/SzJ (NRG) male mice. The mice were maintained and the experiments were conducted in according to the guidelines established by the Canadian Council on Animal Care and approved by Animal Ethics Committee of the University of British Columbia. Mice were anesthetized by inhalation with 2% isoflurane in oxygen, and implanted subcutaneously with 1×10^7 LNCaP cells posterior to the left shoulder. Mice were used for studies when the tumor reached 5-8 mm in diameter 5-6 weeks after inoculation.\nFor radiotherapy study, tumor-bearing mice were injected with saline (the control group), ^177Lu-PSMA-617 (18.5 MBq) or ^177Lu-HTK01169 (18.5, 9.3, 4.6, or 2.3 MBq) (n=8 per group). Tumor size and body weight were measured twice a week from the date of injection (Day 0) until completion of the study (Day 120). Endpoint criteria were defined as >20% weight loss, tumor volume >1000 mm^3, or active ulceration of the tumor."}, "[3]": {"details": "source organ Large intestine contents"}, "[4]": {"details": "source organ Remainder of the body"}, "[5]": {"details": "source organ Urinary bladder contents"}}, "data": [{"smiles": "O=C([O-])CN1CCN(CC(=O)[O-])CCN(CC(=O)NCCCC[C@H](NC(=O)[C@H](CCC(=O)O)NC(=O)CCCc2ccc(I)cc2)C(=O)NC[C@H]2CC[C@H](C(=O)N[C@@H](Cc3ccc4ccccc4c3)C(=O)NCCCC[C@H](NC(=O)N[C@@H](CCC(=O)O)C(=O)O)C(=O)O)CC2)CCN(CC(=O)[O-])CC1.[177Lu+3]", "note": "[^177Lu-HTK01169]", "values": [{"measurement": "Kinetics value", "setting": "[1]; source organ Brain", "result": "3.21E−02", "unit": "MBq-h/MBq"}, {"measurement": "Kinetics value", "setting": "[1]; source organ Cortical bone", "result": "5.48E−01", "unit": "MBq-h/MBq"}, {"measurement": "Kinetics value", "setting": "[1]; source organ Heart contents", "result": "1.66E−01", "unit": "MBq-h/MBq"}, {"measurement": "Kinetics value", "setting": "[1]; source organ Kidneys", "result": "1.94E+01", "unit": "MBq-h/MBq"}, {"measurement": "Kinetics value", "setting": "[1]; [3]", "result": "2.25E−01", "unit": "MBq-h/MBq"}, {"measurement": "Kinetics value", "setting": "[1]; source organ Liver", "result": "1.41E+00", "unit": "MBq-h/MBq"}, {"measurement": "Kinetics value", "setting": "[1]; source organ Lungs", "result": "1.28E−01", "unit": "MBq-h/MBq"}, {"measurement": "Kinetics value", "setting": "[1]; source organ Pancreas", "result": "1.30E−01", "unit": "MBq-h/MBq"}, {"measurement": "Kinetics value", "setting": "[1]; [4]", "result": "1.73E+01", "unit": "MBq-h/MBq"}, {"measurement": "Kinetics value", "setting": "[1]; source organ Small intestine", "result": "6.73E−01", "unit": "MBq-h/MBq"}, {"measurement": "Kinetics value", "setting": "[1]; source organ Spleen", "result": "4.38E−01", "unit": "MBq-h/MBq"}, {"measurement": "Kinetics value", "setting": "[1]; source organ Stomach contents", "result": "1.54E−02", "unit": "MBq-h/MBq"}, {"measurement": "Kinetics value", "setting": "[1]; source organ Testes", "result": "1.66E−01", "unit": "MBq-h/MBq"}, {"measurement": "Kinetics value", "setting": "[1]; [5]", "result": "6.02E−01", "unit": "MBq-h/MBq"}, {"measurement": "change of tumor size over time, dependence on injected radioactivity", "setting": "[2]; 2.3-18.5 MBq", "result": "higher radioactivity leading to more effective and prolonged tumor growth inhibition"}, {"measurement": "Median survival", "setting": "[2]; 2.3 MBq injected", "result": 28, "unit": "days"}, {"measurement": "Median survival", "setting": "[2]; 4.6 MBq injected", "result": 61, "unit": "days"}, {"measurement": "Median survival", "setting": "[2]; 9.3 MBq injected", "result": 103, "unit": "days"}, {"measurement": "survival until end of study (Day 120)", "setting": "[2]; 18.5 MBq", "result": "survived until the end of the study"}, {"measurement": "Median survival", "setting": "[2]; 18.5 MBq injected", "result": ">120", "unit": "days"}, {"measurement": "administered activity needed for similar treatment efficacy, relative to 177Lu-PSMA-617", "setting": "[2]; mouse, in vivo", "result": "only a quarter"}]}, {"smiles": "O=C([O-])CN1CCN(CC(=O)[O-])CCN(CC(=O)NCC2CCC(C(=O)N[C@@H](Cc3ccc4ccccc4c3)C(=O)NCCCC[C@H](NC(=O)N[C@@H](CCC(=O)O)C(=O)O)C(=O)O)CC2)CCN(CC(=O)[O-])CC1.[177Lu+3]", "note": "(stereo partly shown) [^177Lu-PSMA-617, reference compound]", "values": [{"measurement": "Kinetics value", "setting": "[1]; source organ Brain", "result": "6.96E−03", "unit": "MBq-h/MBq"}, {"measurement": "Kinetics value", "setting": "[1]; source organ Cortical bone", "result": "9.96E−02", "unit": "MBq-h/MBq"}, {"measurement": "Kinetics value", "setting": "[1]; source organ Heart contents", "result": "4.21E−03", "unit": "MBq-h/MBq"}, {"measurement": "Kinetics value", "setting": "[1]; source organ Kidneys", "result": "1.13E+00", "unit": "MBq-h/MBq"}, {"measurement": "Kinetics value", "setting": "[1]; [3]", "result": "1.74E−02", "unit": "MBq-h/MBq"}, {"measurement": "Kinetics value", "setting": "[1]; source organ Liver", "result": "6.54E−02", "unit": "MBq-h/MBq"}, {"measurement": "Kinetics value", "setting": "[1]; source organ Lungs", "result": "5.10E−03", "unit": "MBq-h/MBq"}, {"measurement": "Kinetics value", "setting": "[1]; source organ Pancreas", "result": "5.44E−03", "unit": "MBq-h/MBq"}, {"measurement": "Kinetics value", "setting": "[1]; [4]", "result": "6.82E−01", "unit": "MBq-h/MBq"}, {"measurement": "Kinetics value", "setting": "[1]; source organ Small intestine", "result": "5.20E−02", "unit": "MBq-h/MBq"}, {"measurement": "Kinetics value", "setting": "[1]; source organ Spleen", "result": "1.50E−02", "unit": "MBq-h/MBq"}, {"measurement": "Kinetics value", "setting": "[1]; source organ Stomach contents", "result": "5.42E−03", "unit": "MBq-h/MBq"}, {"measurement": "Kinetics value", "setting": "[1]; source organ Testes", "result": "4.96E−03", "unit": "MBq-h/MBq"}, {"measurement": "Kinetics value", "setting": "[1]; [5]", "result": "1.10E+00", "unit": "MBq-h/MBq"}, {"measurement": "change of tumor size over time", "setting": "[2]; 18.5 MBq", "result": "shrank initially but grew back later"}, {"measurement": "Median survival", "setting": "[2]; 18.5 MBq injected", "result": 58, "unit": "days"}]}]}
